Test system: T cells from human peripheral blood mononuclear cells (PBMC)
Test: Induction and proliferation of human T cell response to peptide (3H-thymidine proliferation assay)
Format: cell-based
Details: PBMC from four healthy donors primed with peptide-pulsed dendritic cells, re-stimulated with peptide-pulsed autologous PBMC, mean cpm of triplicates
Source text: In this experiment, peripheral blood mononuclear cells (PBMC) from four healthy humans (donors “14328”, “14313”, “23244” and “23255”) and were isolated and primed for seven days with dendritic cells pulsed with the SEQ ID NO: 11 peptide derived from the hTERT σ-insert polypeptide, followed by two cycles consisting of seven days re-stimulation with peptide-pulsed autologous PBMC. The dendritic cells were derived from monocytes from peripheral blood. T cells from the resulting bulk: culture were tested in triplicate with or without peptide-pulsed antigen presenting cells (APC) before harvesting after 3 days. To measure the proliferative capacity of the cultures, ^3H-thymidine (3.7×10^4 Bq/well) was added to the culture overnight before harvesting. Cultures with non-pulsed APC or without APC served as controls. Further details of the protocol used are set out below.
T cell clones were obtained from the resulting bulk cultures from non-vaccinated donors 14313 and 23255. […]
PBMCs were separated out from 50 ml of blood (from buffy coat). The cells were counted and re-suspended in complete RPMI-1640/15% pool serum. […]
Bulk cultures were harvested and stimulated with irradiated PBMCs and peptide. If there was high cell death, cultures were lymphoprep separated, otherwise they were counted and resuspended in RPMI/15% pool serum. […]

“SEQ ID NO: 11: peptide derived from the hTERT σ-insert polypeptide (RVAVLWFNFLFKQKPSVSPRG; listed as Homo sapiens)” was tested, and the “proliferative T cell response / peptide-specific T cells (bulk cultures and T cell clones, FIGS. 7-9)” value was “T cells can be expanded in vitro following stimulation with the relevant peptide”.

From patent publication US8193326B2, “Nucleic acids encoding novel TERT polypeptides” (GemVax AS, priority 2000, dated 2012)
